Data as given in patent US20220002272A1, “BISARYL LACTAMS AS NRF2 ACTIVATORS” (GLAXOSMITHKLINE INTELLECTUAL PROPERTY DEVELOPMENT LIMITED, priority 2016, published 2022).
pEC50: −log10 of the molar value. Where a name gives a salt, the structure may show the parent alone.

system: NQ01 specific enzyme activity in BEAS-2B cells (marker for Nrf2 activation); assay: BEAS-2B NQ01 MTT Assay; format: cell-based; conditions: Homo sapiens; NQ01 specific activity induction in BEAS-2B cells, 48 hours incubation with compound
Description: NAD(P)H:quinone oxidoreductase 1 (NQ01), also called DT diaphorase, is a homodimeric FAD-containing enzyme that catalyzes obligatory NAD(P)H-dependent two-electron reductions of quinones and protects cells against the toxic and neoplastic effects of free radicals and reactive oxygen species arising from one-electron reductions. The transcription of NQ01 is finely regulated by Nrf2, and thus NQ01 activity is a good marker for Nrf2 activation. On day one, frozen BEAS-2B cells (ATCC) are thawed in a water bath, counted, and re-suspended at a concentration of 250,000 cells/mL. Fifty microliters of cells are plated in 384 well black clear-bottomed plates. Plates are incubated at 37° C., 5% CO2 overnight. On day two, plates are centrifuged and 50 nL of compound or controls are added to the cells. Plates are then incubated at 37° C., 5% CO2 for 48 hours. On day four, medium is aspirated from the plate and crude cell lysates are made by adding 13 uL of 1× Cell Signaling Technologies lysis buffer with 1 Complete, Mini, EDTA-free Protease Inhibitor Tablet (Roche) for each 10 mL of lysis buffer. After lysis plates are incubated for 20 minutes at room temperature. Two microliters of lysate are removed for use in Cell Titer Glo assay (Promega) and MTT cocktail is prepared (Prochaska et. al. 1998) for measurement of NQ01 activity. Fifty microliters of MTT cocktail is added to each well, plate is centrifuged, and analyzed on an Envision plate reader (Perkin Elmer) using Absorbance 570 nm label for 30 minutes. Product formation is measured kinetically and the pEC50 of NQ01 specific activity induction is calculated by plotting the change in absorbance (Delta OD/min) versus the log of compound concentration followed by 3-parameter fitting.
pEC50 is the negative log of the EC50.
EC50s<1 nM (+++++), EC50s 10 nM-1 nM (++++), EC50s 10-100 nM (+++), EC50s 100 nM-1 μM (++), EC50s 1-10 μM (+).

Row | Structure (SMILES) | pEC50
1 | CCC1CN(Cc2cc(C(c3ccc4c(nnn4C)c3C)C(C)(C)C(=O)O)ccc2C)CC(=O)N(C)C1 (stereo not shown) [Example 5, 3-(1,4-Dimethyl-1H-benzo[d][1,2,3]triazol-5-yl)-3-(3-((6-ethyl-4-methyl-3-oxo-1,4-diazepan-1-yl)methyl)-4-methylphenyl)-2,2-dimethylpropanoic acid] | 8.00 to 9.00
2 | Cc1c(C(c2ccc3c(c2)C(N2CC(=O)N(C)CC(C)(C)C2)CC3)C(C)(C)C(=O)O)ccc2c1nnn2C (stereo not shown) [Example 13, 3-(1,4-Dimethyl-1H-benzo[d][1,2,3]triazol-5-yl)-2,2-dimethyl-3-(3-(4,6,6-trimethyl-3-oxo-1,4-diazepan-1-yl)-2,3-dihydro-1H-inden-5-yl)propanoic acid] | 6.00 to 7.00
3 | Cc1ccc(C(c2ccc3c(nnn3C)c2C)C(C)(C)C(=O)O)cc1CN1CC(=O)N(C)CC(C)(C)C1 (stereo not shown) [Example 7, 3-(1,4-Dimethyl-1H-benzo[d][1,2,3]triazol-5-yl)-2,2-dimethyl-3-(4-methyl-3-((4,6,6-trimethyl-3-oxo-1,4-diazepan-1-yl)methyl)phenyl)propanoic acid] | 8.00 to 9.00
4 | CCN1CC(C)(C)CN(Cc2cc([C@@H](c3ccc4c(nnn4C)c3C)C(C)(C)C(=O)O)ccc2C)CC1=O [Example 4] | 8.00 to 9.00
5 | CCn1cc(CCC(c2ccc(Cl)c(CN3CC(=O)N(C)CC(C)(C)C3)c2)C(C)(C)C(=O)O)nn1 (stereo not shown) [Example 16, 3-(4-Chloro-3-((4,6,6-trimethyl-3-oxo-1,4-diazepan-1-yl)methyl)phenyl)-5-(1-ethyl-1H-1,2,3-triazol-4-yl)-2,2-dimethylpentanoic acid] | > 9.00
6 | CCn1cc(COC(c2ccc(C)c(CN3CC(=O)N(C)CC(C)(C)C3)c2)C(C)(C)C(=O)O)nn1 (stereo not shown) [Example 14, 3-((1-Ethyl-1H-1,2,3-triazol-4-yl)methoxy)-2,2-dimethyl-3-(4-methyl-3-((4,6,6-trimethyl-3-oxo-1,4-diazepan-1-yl)methyl)phenyl)propanoic acid] | 6.00 to 7.00
7 | Cc1ccc(C(c2ccc3c(nnn3C)c2C)C(C)(C)C(=O)O)cc1CN1CC(=O)N(CC2CC2)CC(C)(C)C1 (stereo not shown) [Example 9, 3-(3-((4-(Cyclopropylmethyl)-6,6-dimethyl-3-oxo-1,4-diazepan-1-yl)methyl)-4-methylphenyl)-3-(1,4-dimethyl-1H-benzo[d][1,2,3]triazol-5-yl)-2,2-dimethylpropanoic acid] | 7.00 to 8.00
8 | Cc1c(C(c2ccc3c(c2)C(N2CC(=O)N(C)CC(C)(C)C2)CC3)C(C)(C)C(=O)O)ccc2c1nnn2C (single isomer, unassigned) [Example 12] | 7.00 to 8.00
9 | Cc1c([C@H](c2ccc3c(c2)[C@@H](N2CC(=O)N(C)CC(C)(C)C2)CC3)C(C)(C)C(=O)O)ccc2c1nnn2C (relative stereo) [Example 11, rel-3S-(1,4-Dimethyl-1H-benzo[d][1,2,3]triazol-5-yl)-2,2-dimethyl-3-(rel-(S)-3-(4,6,6-trimethyl-3-oxo-1,4-diazepan-1-yl)-2,3-dihydro-1H-inden-5-yl)propanoic acid] | 8.00 to 9.00
10 | Cc1ccc(C(c2ccc3c(nnn3C)c2C)C(C)(C)C(=O)O)cc1CN1CC(=O)N(C2CCC2)CC(C)(C)C1 (stereo not shown) [Example 8, 3-(3-((4-Cyclobutyl-6,6-dimethyl-3-oxo-1,4-diazepan-1-yl)methyl)-4-methylphenyl)-3-(1,4-dimethyl-1H-benzo[d][1,2,3]triazol-5-yl)-2,2-dimethylpropanoic acid] | 8.00 to 9.00
11 | Cc1ccc([C@@H](c2ccc3c(nnn3C)c2C)C(C)(C)C(=O)O)cc1CN1CC(=O)N(C2CC2)CC(C)(C)C1 [Example 1] | 8.00 to 9.00
12 | Cc1ccc([C@@H](c2ccc3c(nnn3C)c2C)C(C)(C)C(=O)O)cc1CN1CC(=O)N(C)CC(C)(C)C1 [Example 6, (S)-3-(1,4-Dimethyl-1H-benzo[d][1,2,3]triazol-5-yl)-2,2-dimethyl-3-(4-methyl-3-((4,6,6-trimethyl-3-oxo-1,4-diazepan-1-yl)methyl)phenyl)propanoic acid, 0.3Formic acid salt] | 8.00 to 9.00
13 | Cc1c([C@H](c2ccc3c(c2)[C@H](N2CC(=O)N(C)CC(C)(C)C2)CC3)C(C)(C)C(=O)O)ccc2c1nnn2C (relative stereo) [Example 10, rel-3S-(1,4-Dimethyl-1H-benzo[d][1,2,3]triazol-5-yl)-2,2-dimethyl-3-(rel-(R)-3-(4,6,6-trimethyl-3-oxo-1,4-diazepan-1-yl)-2,3-dihydro-1H-inden-5-yl)propanoic acid] | > 9.00
14 | Cc1ccc([C@@H](c2ccc3c(nnn3C)c2C)C(C)(C)C(=O)O)cc1CN1CCCN(C)C(=O)C1 [Example 3, (S)-3-(1,4-Dimethyl-1H-benzo[d][1,2,3]triazol-5-yl)-2,2-dimethyl-3-(4-methyl-3-((4-methyl-3-oxo-1,4-diazepan-1-yl)methyl)phenyl)propanoic acid] | 6.00 to 7.00
15 | CCCN1CC(C)(C)CN(Cc2cc([C@@H](c3ccc4c(nnn4C)c3C)C(C)(C)C(=O)O)ccc2C)CC1=O [Example 2] | 8.00 to 9.00
16 | CCCN1CC(C)(C)CN(Cc2cc(C(CCc3cn(CC)nn3)C(C)(C)C(=O)O)ccc2Cl)CC1=O (stereo not shown) [Example 15, 3-(4-Chloro-3-((6,6-dimethyl-3-oxo-4-propyl-1,4-diazepan-1-yl)methyl)phenyl)-5-(1-ethyl-1H-1,2,3-triazol-4-yl)-2,2-dimethylpentanoic acid] | 7.00 to 8.00
